Entries after “also recorded” stand apart in the source; their conditions may differ. Counter-ions that a name gives are not always drawn.
Assays:
[1] = pH dependent solubility of besifloxacin.HCl; assay type: physicochemical; settings: pH of about 4.5 or below solubilizes the drug
Description: Preparation of drug-loaded (suspended form) gel via a conventional method usually leads to exposure of the drug to a wide range of pH conditions, which may lead to, in some instances, solubilization of the drug, and then reprecipitation. This solubilization-reprecipitation phenomenon in most cases leads to change in original particle size, impurity profile or crystal pattern, or others. […] The solubilized besifloxacin then, upon increase in pH (during formulation preparation), reprecipitates, which may result in one or more unwanted changes.

IL-8 = test: P. acnes-induced IL-8 release in THP-1 cells (ELISA); assay type: cell-based; settings: Example 61; besifloxacin 10, 30 μg/ml; adapalene 0.04, 0.4 μg/ml
THP-1 cells = test: Viability of THP-1 cells under treatment; assay type: cell-based; settings: Example 61; each tested condition
IL-6 = test: P. acnes-induced IL-6 release in THP-1 cells (ELISA); assay type: cell-based

In the case of N[C@@H]1CCCCN(c2c(F)cc3c(=O)c(C(=O)O)cn(C4CC4)c3c2Cl)C1 [Besifloxacin.HCl, besifloxacin hydrochloride], the “Solubility (in words)” value [1] is reported as “pH dependent solubility”, the “Effect on P. acnes-induced IL-8 levels (in words)” value (IL-8) is reported as “does not show similar effect” and the “Cell viability compared to untreated cells” value (THP-1 cells) is reported as “over 80%”. The “Effect on P. acnes-induced IL-6 levels (in words)” value (IL-6; Example 61, besifloxacin 10, 30 μg/ml, adapalene 0.04, 0.4 μg/ml, hydrochloride) was “significant dose-dependent decrease; also recorded: impart individual anti-inflammatory effects” and the “Reduction in IL-6 levels compared to untreated control” value (IL-6; besifloxacin.HCl alone at 10 μg/ml) was “approximately 40%”.
